Test results taken from PubChem BioAssay AID1963861 (Molecular Pharmacology Branch, DTP, NCI, 2024).
pIC50: −log10 of the molar value.

Tested on: 885724-159-R-J1-PDC KRAS PDC multicell spheroid viability
Assay: Anticancer human tumor 885724-159-R-J1-PDC patient-derived pancreatic adenocarcinoma cell line growth inhibition [KRAS2]
Details: for pIC50: curve of first compound; for viability, T/C: stronger effect = lower value; active = viability on the fitted dose curve at most 10% of control; inactive = the rest
Method in brief: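 Combination screen of spheroid viability in tumor-cell co-cultures with endothelial (HUVEC) and mesenchymal stem cell stroma. Each agent was tested in half-log dilutions, topping at clinical Cmax or at 10 microM without a known Cmax.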
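Also: spheroids exposed to agents for 7 days before readout.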

CC(C)n1nc(-c2ccc3oc(N)nc3c2)c2c(N)ncnc21 + COc1cc2nc(C)nc(NC(C)c3cc(N)cc(C(F)(F)F)c3)c2cc1OC1CCOC1
8.12: pIC50 (second compound 3.16 µM)
7.77: pIC50 (second compound 0.1 µM)
inactive: viability, T/C (second compound 0.1 µM, first compound 0.000316 µM) 91.2% | viability, T/C (second compound 0.1 µM, first compound 0.001 µM) 76.2% | viability, T/C (second compound 0.1 µM, first compound 0.00316 µM) 62.7% | viability, T/C (second compound 0.1 µM, first compound 0.01 µM) 53.2% | viability, T/C (second compound 0.1 µM, first compound 0.0316 µM) 47% | viability, T/C (second compound 0.1 µM, first compound 0.1 µM) 40.3% | viability, T/C (second compound 0.316 µM, first compound 0.000316 µM) 90.3% | viability, T/C (second compound 0.316 µM, first compound 0.001 µM) 75.8% | viability, T/C (second compound 0.316 µM, first compound 0.00316 µM) 66.4% | viability, T/C (second compound 0.316 µM, first compound 0.01 µM) 57.2% | viability, T/C (second compound 0.316 µM, first compound 0.0316 µM) 45% | viability, T/C (second compound 0.316 µM, first compound 0.1 µM) 39.2% | viability, T/C (second compound 1 µM, first compound 0.000316 µM) 93% | viability, T/C (second compound 1 µM, first compound 0.001 µM) 78.8% | viability, T/C (second compound 1 µM, first compound 0.00316 µM) 59.7% | viability, T/C (second compound 1 µM, first compound 0.01 µM) 56% | viability, T/C (second compound 1 µM, first compound 0.0316 µM) 46.9% | viability, T/C (second compound 1 µM, first compound 0.1 µM) 42% | viability, T/C (second compound 3.16 µM, first compound 0.000316 µM) 76.4% | viability, T/C (second compound 3.16 µM, first compound 0.001 µM) 69.8% | viability, T/C (second compound 3.16 µM, first compound 0.00316 µM) 54.8% | viability, T/C (second compound 3.16 µM, first compound 0.01 µM) 49.1% | viability, T/C (second compound 3.16 µM, first compound 0.0316 µM) 47% | viability, T/C (second compound 3.16 µM, first compound 0.1 µM) 42.6% | viability, T/C (second compound 10 µM, first compound 0.000316 µM) 36.4% | viability, T/C (second compound 10 µM, first compound 0.001 µM) 24.9% | viability, T/C (second compound 10 µM, first compound 0.00316 µM) 47.5% | viability, T/C (second compound 10 µM, first compound 0.01 µM) 39.8% | viability, T/C (second compound 10 µM, first compound 0.0316 µM) 31.4% | viability, T/C (second compound 10 µM, first compound 0.1 µM) 20.9%
7.69: pIC50 (second compound 0.316 µM)
7.74: pIC50 (second compound 1 µM)
> 9.50: pIC50 (second compound 10 µM)
